Measurements from PubChem BioAssay AID1918943 (Molecular Pharmacology Branch, DTP, NCI, 2023).
pIC50: −log10 of the molar value. “And” between values parts separate entries of the source, which are not always exact repeats. Equal values may be shown once.

Tested on: 855422-203-R-J1-PDC complex spheroid viability
Assay: Anticancer human tumor 855422-203-R-J1-PDC patient-derived bladder carcinoma cell line growth inhibition
Details: for viability, T/C: stronger effect = lower value
Outline: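 Drug combinations with the LSD1 inhibitor iadademstat tested on tumor cells co-cultured as spheroids with endothelial cells and mesenchymal stem cells. Concentrations descended in half-log increments from clinical Cmax or 10 microM.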

[1] = curve of first compound, second compound 0.1 µM
[2] = curve of first compound, second compound 0.316 µM
[3] = curve of first compound, second compound 1 µM
[4] = curve of first compound, second compound 3.16 µM
[5] = curve of first compound, second compound 10 µM
[6] = second compound 0.1 µM, first compound 0.0316 µM
[7] = second compound 0.1 µM, first compound 0.1 µM
[8] = second compound 0.1 µM, first compound 0.316 µM
[9] = second compound 0.1 µM, first compound 1 µM
[10] = second compound 0.316 µM, first compound 0.0316 µM
[11] = second compound 0.316 µM, first compound 0.1 µM
[12] = second compound 0.316 µM, first compound 0.316 µM
[13] = second compound 0.316 µM, first compound 1 µM
[14] = second compound 1 µM, first compound 0.0316 µM
[15] = second compound 1 µM, first compound 0.1 µM
[16] = second compound 1 µM, first compound 0.316 µM
[17] = second compound 1 µM, first compound 1 µM
[18] = second compound 3.16 µM, first compound 0.0316 µM
[19] = second compound 3.16 µM, first compound 0.1 µM
[20] = second compound 3.16 µM, first compound 0.316 µM
[21] = second compound 3.16 µM, first compound 1 µM
[22] = second compound 10 µM, first compound 0.0316 µM
[23] = second compound 10 µM, first compound 0.1 µM
[24] = second compound 10 µM, first compound 0.316 µM
[25] = second compound 10 µM, first compound 1 µM
[26] = second compound 0.1 µM, first compound 3.16 µM
[27] = second compound 0.1 µM, first compound 10 µM
[28] = second compound 0.316 µM, first compound 3.16 µM
[29] = second compound 0.316 µM, first compound 10 µM
[30] = second compound 1 µM, first compound 3.16 µM
[31] = second compound 1 µM, first compound 10 µM
[32] = second compound 3.16 µM, first compound 3.16 µM
[33] = second compound 3.16 µM, first compound 10 µM
[34] = second compound 10 µM, first compound 3.16 µM
[35] = second compound 10 µM, first compound 10 µM
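Note: drug exposure lasted 7 days starting on day 3 after seeding.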
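Throughout, for viability, T/C: luminescence viability as percent of DMSO vehicle wells = 100%.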

| Compound | pIC50 [1] | pIC50 [2] | pIC50 [3] | pIC50 [4] | pIC50 [5] | viability, T/C [6] | viability, T/C [7] | viability, T/C [8] | viability, T/C [9] | viability, T/C [10] | viability, T/C [11] | viability, T/C [12] | viability, T/C [13] | viability, T/C [14] | viability, T/C [15] | viability, T/C [16] | viability, T/C [17] | viability, T/C [18] | viability, T/C [19] | viability, T/C [20] | further results |
| --- | --- | --- | --- | --- | --- | --- | --- | --- | --- | --- | --- | --- | --- | --- | --- | --- | --- | --- | --- | --- | --- |
| CC1COCCN1c1cc(-c2ccnn2C)c2ccnc(-c3ccn[nH]3)c2n1 (configuration not stated) + NC1CCC(NC2CC2c2ccccc2)CC1 | 6.74 | 6.79 | 6.75 | 7.00 | 7.06 | 86.5% | 59.5% | 41.5% | 33% | 90.3% | 60% | 39.5% | 33% | 96.4% | 63.8% | 38.7% | 34% | 87.4% | 49.9% | 32.5% | viability, T/C (second compound 0.1 µM, first compound 0.00316 µM): 95.1%; viability, T/C (second compound 0.1 µM, first compound 0.01 µM): 83.1%; viability, T/C (second compound 0.316 µM, first compound 0.00316 µM): 91.8%; viability, T/C (second compound 0.316 µM, first compound 0.01 µM): 78.9%; viability, T/C (second compound 1 µM, first compound 0.00316 µM): 85%; viability, T/C (second compound 1 µM, first compound 0.01 µM): 79.7%; viability, T/C (second compound 3.16 µM, first compound 0.00316 µM): 87.4%; viability, T/C (second compound 3.16 µM, first compound 0.01 µM): 83.5%; viability, T/C [21]: 27.2%; viability, T/C (second compound 10 µM, first compound 0.00316 µM): 88%; viability, T/C (second compound 10 µM, first compound 0.01 µM): 81.1%; viability, T/C [22]: 84%; viability, T/C [23]: 44.9%; viability, T/C [24]: 33.2%; viability, T/C [25]: 31.7% |
| CC(C)c1c(-c2ccccc2)nc2c(C#N)c[nH]n2c1=O + NC1CCC(NC2CC2c2ccccc2)CC1 | < 5.00 | < 5.00 | < 5.00 | < 5.00 | < 5.00 | 82.4% | 88% | 92.9% | 87.7% | 93.2% | 85.3% | 93.4% | 83.3% | 88.6% | 92.2% | 85.9% | 86.7% | 89.1% | 80.4% | 81.1% | viability, T/C [26]: 85.3%; viability, T/C [27]: 74.7%; viability, T/C [28]: 77.1%; viability, T/C [29]: 74%; viability, T/C [30]: 80.1%; viability, T/C [31]: 75.3%; viability, T/C [21]: 77.1%; viability, T/C [32]: 79.9%; viability, T/C [33]: 80.2%; viability, T/C [22]: 82.9%; viability, T/C [23]: 91.7%; viability, T/C [24]: 84.4%; viability, T/C [25]: 74.6%; viability, T/C [34]: 69.6%; viability, T/C [35]: 73.4% |
| CC1COCCN1c1cc(C2(S(C)(=N)=O)CC2)nc(-c2ccnc3[nH]ccc23)n1 (configuration not stated) + NC1CCC(NC2CC2c2ccccc2)CC1 | 5.26 | 5.22 | 5.50 | 5.55 | 5.61 | 98.1% | 97.4% | 104% | 93.1% | 97.4% | 101% | 102% | 92.7% | 91.1% | 93.1% | 90.7% | 87.7% | 86.2% | 87.9% | 93.1% | viability, T/C [26]: 57.6%; viability, T/C [27]: 41.7%; viability, T/C [28]: 60.6%; viability, T/C [29]: 41.6%; viability, T/C [30]: 49.8%; viability, T/C [31]: 45.7%; viability, T/C [21]: 83.3%; viability, T/C [32]: 46%; viability, T/C [33]: 43.4%; viability, T/C [22]: 86%; viability, T/C [23]: 85.5%; viability, T/C [24]: 89.8%; viability, T/C [25]: 77.8%; viability, T/C [34]: 42%; viability, T/C [35]: 39.2% |
| COc1ccc([C@@H](O)c2cc(-c3ncnc4cc(N5CCOCC5)ccc34)c(F)cc2Cl)nn1 + NC1CCC(NC2CC2c2ccccc2)CC1 | 5.40 | 5.43 | 5.45 | 5.51 | 5.49 | 83.7% | 88.8% | 76.3% | 73.8% | 88.5% | 89.4% | 73.4% | 69.3% | 87.1% | 84.7% | 73.3% | 68% | 85.2% | 78.2% | 75.1% | viability, T/C [26]: 53.1%; viability, T/C [27]: 34.5%; viability, T/C [28]: 53%; viability, T/C [29]: 33.5%; viability, T/C [30]: 53%; viability, T/C [31]: 30.8%; viability, T/C [21]: 68.2%; viability, T/C [32]: 48.4%; viability, T/C [33]: 31.3%; viability, T/C [22]: 76.9%; viability, T/C [23]: 80%; viability, T/C [24]: 71.7%; viability, T/C [25]: 64.7%; viability, T/C [34]: 50.6%; viability, T/C [35]: 32.8% |
| Nc1ncn(C2CC(O)C(CO)O2)c(=O)n1 (configuration not stated) |  |  |  |  |  |  |  |  |  |  |  |  |  |  |  |  |  |  |  |  | viability, T/C (compound 0.00316 µM): 101% and 96.5%; viability, T/C (compound 0.01 µM): 92.3% and 88.8%; viability, T/C (compound 0.0316 µM): 81.1% and 89%; viability, T/C (compound 0.1 µM): 86.6% and 94%; viability, T/C (compound 0.316 µM): 80.8% and 94.5%; viability, T/C (compound 1 µM): 78% and 87%; pIC50 (curve of compound): < 6.00 |
